Laboratory results reported in patent US20100298141A1, “SUBSTITUTED PYRIDINE N-OXIDE HERBICIDES” (E. I. DU PONT DE NEMOURS AND COMPANY, priority 2007, published 2010).

How the values were obtained:
[1] = tested on: wheat; test: Test C pre-/postemergence test; format: in vivo, Triticum aestivum
How it was run: (§1)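 Compounds in a non-phytotoxic solvent with surfactant applied preemergence to seeded pots and, at the same time, postemergence to plants 2–18 cm tall (1- to 4-leaf stage). Paddy tests: pots flooded to 3 cm, compound applied into the water, depth held throughout.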

[2] = tested on: giant foxtail; test: Test A pre-/postemergence greenhouse test; format: in vivo, Setaria faberi; conditions: for Plant response rating, Foxtail, Giant: 0 to 100 scale where 0 is no effect and 100 is complete control; for Foxtail, Giant plant response rating: 0 to 100 scale
How it was run: (§2)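 Pots of loam–sand soil sown with the test species are sprayed preemergence on the soil surface; emerged seedlings (1–2 leaves, 2–10 cm) are sprayed postemergence at the same time. The vehicle is a non-phytotoxic solvent mixture with surfactant. Injury is scored visually after ~10 d in greenhouse.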

[3] = tested on: umbrella sedge; test: Test C flooded paddy test; format: in vivo, Cyperus difformis; conditions: Flood
How it was run: (§3)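 Ratings were visual and made relative to untreated controls after 13 to 15 greenhouse days.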

[4] = tested on: Italian ryegrass; test: Test C pre-/postemergence test; format: in vivo, Lolium multiflorum
How it was run: as §1

[5] = tested on: yellow nutsedge; test: Test C pre-/postemergence test; format: in vivo, Cyperus esculentus
How it was run: as §1

[6] = tested on: morningglory; test: Test C pre-/postemergence test; format: in vivo, Ipomoea coccinea
How it was run: as §1

[7] = tested on: Goosegrass; test: Test C pre-/postemergence test; format: in vivo, Eleusin indica
How it was run: as §1

[8] = tested on: wheat; test: Test A pre-/postemergence greenhouse test; format: in vivo, Triticum aestivum; conditions: for Plant response rating, Wheat: 0 to 100 scale where 0 is no effect and 100 is complete control; for Wheat plant response rating: 0 to 100 scale
How it was run: as §2

[9] = tested on: catchweed bedstraw; test: Test C pre-/postemergence test; format: in vivo, Galium aparine
How it was run: as §1

[10] = tested on: morningglory; test: Test A pre-/postemergence greenhouse test; format: in vivo, Ipomoea spp.; conditions: for Plant response rating, Morningglory: 0 to 100 scale where 0 is no effect and 100 is complete control; for Morningglory plant response rating: 0 to 100 scale
How it was run: as §2

[11] = tested on: bermudagrass; test: Test C pre-/postemergence test; format: in vivo, Cynodon dactylon
How it was run: as §1

[12] = tested on: soybean; test: Test C pre-/postemergence test; format: in vivo, Glycine max
How it was run: as §1

[13] = tested on: pigweed; test: Test C pre-/postemergence test; format: in vivo, Amaranthus retroflexus
How it was run: as §1

[14] = tested on: common (oilseed) sunflower; test: Test C pre-/postemergence test; format: in vivo, Helianthus annuus
How it was run: as §1

[15] = tested on: barnyardgrass; test: Test C flooded paddy test; format: in vivo, Echinochloa crus-galli; conditions: Flood
How it was run: as §3

[16] = tested on: crabgrass; test: Test A pre-/postemergence greenhouse test; format: in vivo, Digitaria sanguinalis; conditions: for Plant response rating, Crabgrass, Large: 0 to 100 scale where 0 is no effect and 100 is complete control; for Crabgrass, Large plant response rating: 0 to 100 scale
How it was run: as §2

[17] = tested on: corn; test: Test A pre-/postemergence greenhouse test; format: in vivo, Zea mays; conditions: for Plant response rating, Corn: 0 to 100 scale where 0 is no effect and 100 is complete control; for Corn plant response rating: 0 to 100 scale
How it was run: as §2

[18] = 62 g ai/ha, Preemergence, scale 0 to 100
[19] = 125 g ai/ha, preemergence, scale 0 (no effect) to 100 (complete control)
[20] = Postemergence, 125 g ai/ha, scale 0 to 100, 0 no effect, 100 complete control
[21] = Postemergence, 250 g ai/ha, scale 0 to 100, 0 no effect, 100 complete control
[22] = Preemergence, 31 g ai/ha, scale 0 to 100 (0 no effect, 100 complete control)
[23] = preemergence, 250 g ai/ha, scale 0 (no effect) to 100 (complete control)
[24] = Postemergence, 500 g ai/ha, 0 is no effect, 100 is complete control
[25] = Preemergence, 125 g ai/ha, 0 no effect, 100 complete control
[26] = 62 g ai/ha, scale 0 to 100 (0 no effect, 100 complete control)
[27] = 250 g ai/ha, scale 0 to 100, 0 no effect, 100 complete control, 13 to 15 days
[28] = Postemergence, 62 g ai/ha, scale 0 to 100, 0 no effect, 100 complete control

Cn1nc(C(F)(F)F)c(C[S+]([O-])c2ccc(F)c[n+]2[O-])c1OC(F)F (stereo not drawn) [Compound 58]
Wheat plant response rating [1, 18]: 60
Wheat plant response rating [1, 19]: 85
Plant response rating (0 to 100), Wheat ([1]; Postemergence, 31 g ai/ha): 0
Plant response rating (0 to 100), Wheat ([1]; Postemergence, 62 g ai/ha): 0
Plant response rating, Wheat [1, 20]: 20
Plant response rating, Wheat [1, 21]: 60
Plant response rating, Wheat [1, 22]: 10
Wheat plant response rating [1, 23]: 90
Plant response rating, Foxtail, Giant ([2]; Postemergence, 125 g ai/ha): 90
Foxtail, Giant plant response rating [2, 24]: 90
Foxtail, Giant plant response rating [2, 25]: 100
Plant response rating, Foxtail, Giant ([2]; Preemergence, 500 g ai/ha): 100
Plant response rating, Sedge, Umbrella [3, 26]: 80
Plant response rating, Sedge, Umbrella [3, 27]: 80
Ryegrass, Italian plant response rating [4, 18]: 70
Ryegrass, Italian plant response rating [4, 19]: 98
Plant response rating (0 to 100), Ryegrass, Italian ([4]; Postemergence, 31 g ai/ha): 0
Plant response rating (0 to 100), Ryegrass, Italian ([4]; Postemergence, 62 g ai/ha): 40
Plant response rating, Ryegrass, Italian [4, 20]: 70
Plant response rating, Ryegrass, Italian [4, 21]: 90
Plant response rating, Ryegrass, Italian [4, 22]: 40
Ryegrass, Italian plant response rating [4, 23]: 100
Nutsedge, Yellow plant response rating [5, 18]: 40
Nutsedge, Yellow plant response rating [5, 19]: 70
Plant response rating (0 to 100), Nutsedge, Yellow ([5]; Postemergence, 31 g ai/ha): 0
Plant response rating, Nutsedge, Yellow [5, 28]: 0
Plant response rating, Nutsedge, Yellow [5, 20]: 0
Plant response rating, Nutsedge, Yellow [5, 21]: 50
Plant response rating, Nutsedge, Yellow [5, 22]: 0
Nutsedge, Yellow plant response rating [5, 23]: 98
Morningglory plant response rating [6, 18]: 98
Morningglory plant response rating [6, 19]: 98
Plant response rating (0 to 100), Morningglory ([6]; Postemergence, 31 g ai/ha): 0
Plant response rating, Morningglory [6, 28]: 0
Plant response rating, Morningglory [6, 20]: 5
Plant response rating, Morningglory [6, 21]: 5
Plant response rating, Morningglory [6, 22]: 80
Morningglory plant response rating [6, 23]: 100
Goosegrass plant response rating [7, 18]: 90
Goosegrass plant response rating [7, 19]: 100
Plant response rating (0 to 100), Goosegrass ([7]; Postemergence, 31 g ai/ha): 0
Plant response rating, Goosegrass [7, 28]: 0
Plant response rating, Goosegrass [7, 20]: 5
Plant response rating, Goosegrass [7, 21]: 60
Plant response rating, Goosegrass [7, 22]: 80
Goosegrass plant response rating [7, 23]: 100
Plant response rating, Wheat ([8]; Postemergence, 125 g ai/ha): 60
Wheat plant response rating [8, 24]: 70
Wheat plant response rating [8, 25]: 60
Plant response rating, Wheat ([8]; Preemergence, 500 g ai/ha): 100
Galium plant response rating [9, 18]: 70
Galium plant response rating [9, 19]: 100
Plant response rating, Galium [9, 22]: 0
Galium plant response rating [9, 23]: 100
Plant response rating, Morningglory ([10]; Postemergence, 125 g ai/ha): 70
Morningglory plant response rating [10, 24]: 90
Morningglory plant response rating [10, 25]: 60
Plant response rating, Morningglory ([10]; Preemergence, 500 g ai/ha): 100
Bermudagrass plant response rating ([11]; 62 g ai/ha, Preemergence, scale 0 to 100 (0 no effect, 100 complete control)): 100
Bermudagrass plant response rating [11, 19]: 100
Plant response rating (0 to 100), Bermudagrass ([11]; Postemergence, 31 g ai/ha): 0
Plant response rating, Bermudagrass [11, 28]: 0
Plant response rating, Bermudagrass [11, 20]: 20
Plant response rating, Bermudagrass [11, 21]: 40
Plant response rating, Bermudagrass [11, 22]: 100
Bermudagrass plant response rating [11, 23]: 100
Soybean plant response rating [12, 18]: 100
Soybean plant response rating [12, 19]: 100
Plant response rating (0 to 100), Soybean ([12]; Postemergence, 31 g ai/ha): 20
Plant response rating (0 to 100), Soybean ([12]; Postemergence, 62 g ai/ha): 40
Plant response rating, Soybean [12, 20]: 60
Plant response rating, Soybean [12, 21]: 65
Plant response rating, Soybean [12, 22]: 0
Soybean plant response rating [12, 23]: 100
Pigweed plant response rating [13, 18]: 100
Pigweed plant response rating [13, 19]: 100
Plant response rating (0 to 100), Pigweed ([13]; Postemergence, 31 g ai/ha): 0
Plant response rating (0 to 100), Pigweed ([13]; Postemergence, 62 g ai/ha): 0
Plant response rating, Pigweed [13, 20]: 5
Plant response rating, Pigweed [13, 21]: 10
Plant response rating, Pigweed [13, 22]: 100
Pigweed plant response rating [13, 23]: 100
Sunflower plant response rating [14, 18]: 35
Sunflower plant response rating [14, 19]: 35
Plant response rating, Sunflower [14, 22]: 10
Sunflower plant response rating [14, 23]: 85
Plant response rating, Barnyardgrass [15, 26]: 65
Plant response rating, Barnyardgrass [15, 27]: 85
Plant response rating, Crabgrass, Large ([16]; Postemergence, 125 g ai/ha): 80
Crabgrass, Large plant response rating [16, 24]: 90
Crabgrass, Large plant response rating [16, 25]: 80
Plant response rating, Crabgrass, Large ([16]; Preemergence, 500 g ai/ha): 100
Plant response rating, Corn ([17]; Postemergence, 125 g ai/ha): 50
Corn plant response rating [17, 24]: 70
Corn plant response rating [17, 25]: 40
Plant response rating, Corn ([17]; Preemergence, 500 g ai/ha): 90
